Patent US7179632B2, “Process for the production of allicin” (Neem Biotech Ltd., priority 2001, dated 2007)

Assay: Storage stability of allicin in aqueous solution
Assay type: physicochemical

stability in solution (0.5% solution at −40° C., filtered to remove impurities): reasonably stable
stability in solution (concentrations above 0.5% solution in water): extremely unstable
effect of pH on stability (diluted solution, pH controlled to approximately pH 4.5): increases the stability
stability on storage (non-extracted solution diluted to approximately 'it' allicin, stored below −20° C.): stable for several months
stability in solution (solution of up to 1.0% v/v allicin): unstable
Structure (SMILES): C=CCS[S+]([O-])CC=C (centres unmarked) [allicin, thio-2-propene-1-sulfinic acid S-allyl ester]
